Earlier results on one compound are cited in patent EP2391353B1, “PHARMACEUTICAL COMPOSITIONS OF TRIMETAZIDINE” (Lupin Limited, priority 2009, dated 2010).

For the data set the following is noted: administered orally.

In the case of `COc1ccc(CN2CCNCC2)c(OC)c1OC.Cl.Cl` [Trimetazidine dihydrochloride, 1-(2,3,4-trimethoxybenzyl)-piperazine dihydrochloride], the Tmax result is “around 1.8 ± 0.7 hours” and the plasma half-life result is on record as “around 6.0 ± 1.4 hours”.
